Measured values as given in patent US4352792A, “3-Alkoxyflavone antiviral agents” (priority 1979, dated 1982).
Converted amounts (≈) assume the structure as drawn. Read-outs that look alike come from different tables or passages of the source.

Assays:
[1] = tested on: Coxsackie virus B1; assay: Inhibition of viral cytopathogenic effect in HeLa cells (Coxsackie virus B1); format: cell-based; conditions: 24 h, read-out: IC50 Coxsackie virus B1
[2] = tested on: rhinovirus HGP; assay: Inhibition of viral cytopathogenic effect in HeLa cells (rhinovirus HGP); format: cell-based; conditions: Enterovirus, 48 h, read-out: IC50 rhinovirus HGP
[3] = tested on: Coxsackie virus B1; assay: Anti-Coxsackie virus activity, lethal infection in mice; conditions: Mus musculus, po, 504 h, read-out: Survival
[4] = 50% inhibition of viral c.p.e., HeLa cells, 1 day at 37° C.
[5] = 50% inhibition of viral c.p.e., HeLa cells, 2 days at 33° C.

| Compound | IC50 [1, 4] [µg/mL] | IC50 [2, 5] [µg/mL] | responders at 10 mg/kg [3] [%] | responders at 20 mg/kg [3] [%] | IC50 ([1]; HeLa) [µg/mL] | IC50 ([2]; HeLa) [µg/mL] |
| --- | --- | --- | --- | --- | --- | --- |
| COc1cc(OC(=O)C(C)C)c2c(=O)c(OC)c(-c3ccc(OC(=O)C(C)(C)C)c(OC)c3)oc2c1 [5-(isobutyryloxy)-3,3',7-trimethoxy-4'-(pivaloyloxy)-flavone] | 0.3 to 1 (≈ 0.602 to 2.01 µM) | 0.3 (≈ 0.602 µM) | 30 | 40 |  |  |
| CCOC(=O)Oc1ccc(-c2oc3cc(OC)cc(OC(=O)OCC)c3c(=O)c2OC)cc1OC [4',5-bis-(ethoxycarbonyloxy)-3,3',7-trimethoxyflavone] | 0.3 to 1 (≈ 0.614 to 2.05 µM) | 0.3 to 1 (≈ 0.614 to 2.05 µM) | 30 | 30 |  |  |
| COc1cc(OC(=O)c2cccnc2)c2c(=O)c(OC)c(-c3ccc(OC(=O)c4cccnc4)c(OC)c3)oc2c1 [3,3',7-trimethoxy-4',5-bis-(nicotinoyloxy)-flavone] | 0.3 to 1 (≈ 0.541 to 1.8 µM) | 0.3 to 1 (≈ 0.541 to 1.8 µM) | 40 | 30 |  |  |
| COc1c(-c2ccc(N)cc2)oc2cc(O)cc(O)c2c1=O [4'-amino-5,7-dihydroxy-3-methoxyflavone] | 3 to 10 (≈ 10 to 33.4 µM) | 1 to 3 (≈ 3.34 to 10 µM) |  |  |  |  |
| COc1cc(O)c2c(=O)c(OC)c(-c3ccc(OC(C)=O)c(OC)c3)oc2c1 [4'-acetoxy-5-hydroxy-3,3',7-trimethoxyflavone] | 0.25 to 0.5 (≈ 0.647 to 1.29 µM) | 0.5 (≈ 1.29 µM) |  |  |  |  |
| COc1ccc(-c2oc3cc(O)cc(O)c3c(=O)c2OC)cc1 [5,7-dihydroxy-3,4'-dimethoxyflavone] |  |  |  |  | > 4 | 0.5 (≈ 1.59 µM) |
| COc1cc(O)c2c(=O)c(OC)c(-c3ccc(N)cc3)oc2c1 [4'-amino-5-hydroxy-3,7-dimethoxyflavone] | 10 to 30 (≈ 31.9 to 95.8 µM) | 3 (≈ 9.58 µM) |  |  |  |  |

Now from value to compound, other results behind:

| IC50 [1, 4] [µg/mL] | IC50 [2, 5] [µg/mL] | Compound | responders at 10 mg/kg [3] [%] | responders at 20 mg/kg [3] [%] | IC50 ([1]; HeLa) [µg/mL] | IC50 ([2]; HeLa) [µg/mL] |
| --- | --- | --- | --- | --- | --- | --- |
| > 8 | 1 (≈ 3.05 µM) | COc1ccc(-c2oc3cc(OC)cc(O)c3c(=O)c2OC)cc1 [5-hydroxy-3,4',7-trimethoxyflavone] |  |  |  |  |
| 0.3 to 1 (≈ 0.7 to 2.33 µM) | 0.3 (≈ 0.7 µM) | COc1cc(O)c2c(=O)c(OC)c(-c3ccc(OC(=O)C(C)(C)C)c(OC)c3)oc2c1 [5-hydroxy-3,3',7-trimethoxy-4'-(pivaloyloxy)-flavone] |  |  |  |  |
| 0.05 to 0.1 (≈ 0.14 to 0.279 µM) | 0.05 to 0.1 (≈ 0.14 to 0.279 µM) | CCOc1c(-c2ccc(O)c(OC)c2)oc2cc(OC)cc(O)c2c1=O [3-ethoxy-4',5-dihydroxy-3',7-dimethoxyflavone] |  |  |  |  |
| 0.1 to 1.2 (≈ 0.219 to 2.63 µM) | 0.1 to 0.2 (≈ 0.219 to 0.438 µM) | CCC(=O)Oc1ccc(-c2oc3cc(OC)cc(OC(=O)CC)c3c(=O)c2OC)cc1OC [3,3',7-trimethoxy-4',5-bis-(propionyloxy)-flavone] |  |  |  |  |
| 1 to 3 (≈ 2.9 to 8.71 µM) | 0.3 (≈ 0.871 µM) | COc1cc(O)c2c(=O)c(OC)c(-c3ccc(O)cc3OC)oc2c1 [4',5-dihydroxy-2,',3,7-trimethoxyflavone, 4',5-dihydroxy-2',3,7-trimethoxyflavone] |  |  |  |  |
| 3 to 10 (≈ 8.71 to 29 µM) | 3 (≈ 8.71 µM) | COc1cc(O)c2c(=O)c(OC)c(-c3ccc(OC)c(O)c3)oc2c1 [3',5-dihydroxy-3,4',7-trimethoxyflavone] |  |  |  |  |
| 0.05 to 0.1 (≈ 0.134 to 0.269 µM) | 0.05 to 0.1 (≈ 0.134 to 0.269 µM) | COc1cc(O)c2c(=O)c(OC(C)C)c(-c3ccc(O)c(OC)c3)oc2c1 [4',5-dihydroxy-3-isopropoxy-3',7-dimethoxyflavone] |  |  |  |  |
| 0.25 to 0.5 (≈ 0.494 to 0.987 µM) | 0.25 (≈ 0.494 µM) | COc1cc(O)c2c(=O)c(OC)c(-c3ccc(O[C@@H]4O[C@H](CO)[C@@H](O)[C@H](O)[C@H]4O)c(OC)c3)oc2c1 [4'-(β-D-glucopyranosyloxy)-5-hydroxy-3,3',7-trimethoxyflavone] |  |  |  |  |
| 6 to 7 (≈ 16.7 to 19.5 µM) | 2 to 7 (≈ 5.58 to 19.5 µM) | COc1cc(OC)c2c(=O)c(OC)c(-c3ccc(O)c(OC)c3)oc2c1 [4'-hydroxy-3,3',5,7-tetramethoxyflavone] |  |  |  |  |
| 0.25 to 0.5 (≈ 0.528 to 1.06 µM) | 0.25 (≈ 0.528 µM) | COc1cc(O)c2c(=O)c(OC)c(-c3ccc(OC(=O)[C@@H](N)CCC(=O)O)c(OC)c3)oc2c1 [4'-(L-α-glutamyloxy)-5-hydroxy-3,3',7-trimethoxyflavone] |  |  |  |  |
| 0.1 to 0.2 (≈ 0.21 to 0.42 µM) | 0.1 to 0.2 (≈ 0.21 to 0.42 µM) | COc1cc(O)c2c(=O)c(OC)c(-c3ccc(OC(=O)C(O)C(O)C(=O)O)c(OC)c3)oc2c1 (stereo not drawn) [4'-(3-carboxy-2,3-dihydroxypropionyloxy)-5-hydroxy-3,3',7-trimethoxyflavone] |  |  |  |  |
